In US11504425B2, “Amphiphilic oligodeoxynucleotide conjugates as adjuvant enhancers” (WAYNE STATE UNIVERSITY, priority 2019, dated 2022):

Molecular target: T1, human TLR8 (hTLR8) (Homo sapiens, UniProt Q9NR97)
T1 construct: host or cells: HEK-Blue-hTLR8 (HEK293)
T1 sequence (Q9NR97 27-1041): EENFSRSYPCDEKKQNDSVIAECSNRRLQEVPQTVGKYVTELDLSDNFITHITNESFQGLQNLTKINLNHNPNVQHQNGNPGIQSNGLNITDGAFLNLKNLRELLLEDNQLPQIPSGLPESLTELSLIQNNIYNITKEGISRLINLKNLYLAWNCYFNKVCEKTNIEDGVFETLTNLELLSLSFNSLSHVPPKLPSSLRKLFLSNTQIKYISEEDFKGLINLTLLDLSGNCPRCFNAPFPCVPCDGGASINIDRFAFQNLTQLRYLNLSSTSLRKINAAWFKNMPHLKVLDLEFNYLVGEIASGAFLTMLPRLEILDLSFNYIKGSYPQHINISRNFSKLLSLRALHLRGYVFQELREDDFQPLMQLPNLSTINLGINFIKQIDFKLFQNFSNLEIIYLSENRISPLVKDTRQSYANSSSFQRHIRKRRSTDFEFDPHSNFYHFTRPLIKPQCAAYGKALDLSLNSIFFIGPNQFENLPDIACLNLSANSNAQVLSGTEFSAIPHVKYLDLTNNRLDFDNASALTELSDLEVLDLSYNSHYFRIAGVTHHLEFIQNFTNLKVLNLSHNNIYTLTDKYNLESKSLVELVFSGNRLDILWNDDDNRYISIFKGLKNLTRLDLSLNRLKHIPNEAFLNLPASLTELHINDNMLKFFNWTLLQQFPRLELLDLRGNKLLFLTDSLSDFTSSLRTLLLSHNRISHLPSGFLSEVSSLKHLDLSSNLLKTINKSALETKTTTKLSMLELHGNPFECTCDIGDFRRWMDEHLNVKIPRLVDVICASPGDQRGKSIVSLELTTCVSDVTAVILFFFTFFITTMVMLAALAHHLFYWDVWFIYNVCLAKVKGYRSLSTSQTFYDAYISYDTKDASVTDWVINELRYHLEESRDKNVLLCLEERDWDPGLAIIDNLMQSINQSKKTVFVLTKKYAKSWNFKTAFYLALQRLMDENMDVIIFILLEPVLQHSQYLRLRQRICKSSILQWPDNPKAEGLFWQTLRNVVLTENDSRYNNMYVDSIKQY
Assay: HEK hTLR8 reporter cells NF-κB/SEAP
Assay type: cell-based
Conditions: 1 μg/ml or indicated concentrations TLR8-506 + 1 μM ODN, 24 h
Description: HEK-Blue™-mTLR7, mTLR8, hTLR7, hTLR8, and RAW-Blue™ cells were purchased from InvivoGen and were used to evaluate bioactivities of lipo ODNs and TLR 7/8 ligands in vitro. All these cell lines were cultured with DMEM supplemented with 10% FBS, 1% P/S and 100 μg/mL Normocin at 37° C. with 5% CO2. […] After incubating for 24 h, SEAP levels were quantified by developing supernatants with QuantiBlue™ substrate for 1 h and reading absorption at 620 nm, following manufacturer's instructions.
HEK293 cells transfected with human TLR7 or 8 were used. The cells were stimulated with IMQ in the presence of several inhibitory oligonucleotides reported in the literature. […] In contrast, all the unmodified ODNs maintained their inhibitory function, reducing the NF-κB secretion to basal levels (FIG. 8A). We then plotted the IMQ dose response curve in human TLR-7 transfected HEK293 cells.

## 5′-TTTTTTTTTTTTTTTTTTTT-3′ [T20]
  TLR8-506 stimulation of hTLR8 cells in the presence of the ODN: enhanced the stimulation of TLR8-506
